Results: US4269857A, “Control of plant-virus diseases” (Kureha Kagaku Kogyo Kabushiki Kaisha, priority 1978, dated 1981)
Where two headings read alike, the source gives them in different places.

Key:
[1] = system: tobacco mosaic virus (TMV); assay: Inhibition of local lesion formation by TMV, half-leaf method on kidney bean primary leaves; assay type: in vivo, tobacco mosaic virus on kidney bean plants (variety: Otebo); conditions: for inhibition at 500 ppm: Tobacco mosaic virus, read-out: Evaluation (rate of inhibition of lesion spot formation)
From the text: (§1) In the experiments one of the compounds of the present invention was formulated as in the above-mentioned Example 3 and after diluting the formulated composition with water to a predetermined concentration.
In this test, the inhibiting action of the compound of the present invention against the formation of local lesion due to the infection of tobacco mosaic virus (TMV) was examined by the half-leaf method using primary leaves of kedny been plants (variety: Otebo). TMV was inoculated on the primary leaf of kedney been plant, and just after the inoculation, the diluted liquid of the compound was painted on the half surface of the leaf and water was painted on the other half surface of the leaf. The concentration of the compounds of the present invention in the liquid was 500 ppm, and the inoculum was adjusted to form about 50 topical lesion spots on the half surface of the leaf painted with water (control). Ten leaves were usually used for the evaluation of one compound, and the rate of inhibition of lesion spot formation was derived from the following formula: [formula]
The thus obtained rates of inhibition were evaluated according to the following criteria: […]

[2] = system: cucumber mosaic virus (CMV); assay: Inhibition of CMV disease transmitted by aphids (Myzus persicae) on cucumber plants; assay type: in vivo; conditions: CMV via wingless aphids, 500 ppm, sprayed before aphid transmigration, one week after spray
From the text: as §1, with “The followings are the test results of the compounds of the present invention in the plant virus disease-controlling experiments. In” for “In”
The compounds evaluated as A in Test results 2 were further tested as follows:
The cucumber plants growing for two weeks after sowing in greenhouse were sprayed by each liquid containing each compound at a concentration of 500 ppm (variety of cucumber: Kinseisanto). After drying at room temperature about 3 hours, wingless aphids (Myzus persicae, Sulzer) which had been put on the suffered cucumber plant from CMV and shipped the plant sap containing CMV were transmigrated to the sprayed cucumber plants at a rate of 5 insects per plant. On the next day of the transmigration, the insects were killed by spraying dichlorvos in the plants. After one week of the spray of the compound of the present invention, the effectiveness of the compound in inhibiting the occurrence of the sign of disease due to the virus was investigated as the number of plants without the sign of disease per number of plants sprayed. As the control, water was sprayed.

[3] = TMV, kidney bean primary leaves, 500 ppm, painted just after inoculation, half-leaf method

| SMILES | inhibition at 500 ppm [1, 3] [%] | Evaluation (rate of inhibition of lesion spot formation) [1, 3] | Evaluation (number of plants without the sign of disease per number of plants sprayed) [2] | other results |
| --- | --- | --- | --- | --- |
| CCCCCCCCNC[C@H](O)[C@@H](O)[C@H](O)[C@H](O)CO [Compound 8] | 70 to 90 | – | – | – |
| CCCCCCCCCCCCNC[C@H](O)[C@@H](O)[C@H](O)[C@H](O)CO [Compound 16] | – | A (100-90) | A (10/10-8/10) | – |
| CCCCCCCCCCCCCCNC[C@@H](O)[C@@H](O)[C@H](O)[C@H](O)CO [Compound 33] | 70 to 90 | – | – | – |
| CCCCCCCCCCNC[C@@H](O)[C@@H](O)[C@H](O)[C@H](O)CO [Compound 27] | – | – | B (7/10-5/10) | – |
| CCCCCCCCCCCCCCCNC[C@H](O)[C@@H](O)[C@H](O)[C@H](O)CO [Compound 20] | 70 to 90 | – | – | – |
| CCCCCCCCCCCCCCCCCCNC[C@H](O)[C@@H](O)[C@H](O[C@@H]1O[C@H](CO)[C@H](O)[C@H](O)[C@H]1O)[C@H](O)CO [Compound 60] | – | B (90-70) | – | – |
| CCCCCCCCCCNC[C@H](O)[C@H](O)[C@H](O)CO [Compound 43] | 90 to 100 | – | – | – |
| CCCCCCCCCCNC[C@H](O)[C@@H](O)[C@H](O)CO [Compound 50] | 70 to 90 | – | – | – |
| CCCCCCCCCCCCNC[C@@H](O)[C@@H](O)[C@H](O)[C@H](O)CO [Compound 28] | 90 to 100 | – | – | – |
| CCCCCCCCCCCCNC[C@H](O)[C@H](O)[C@H](O)CO [Compound 44] | – | B (90-70) | – | – |
| CCCCCCCCCCCCCCCCCCNC[C@H](O)[C@@H](O)[C@H](O[C@@H]1O[C@H](CO)[C@@H](O)[C@H](O)[C@H]1O)[C@H](O)CO [Compound 62] | 70 to 90 | – | – | – |
| CCCCNC[C@H](O)[C@@H](O)[C@H](O)[C@H](O)CO [Compound 3] | – | – | – | inhibition at 500 ppm [1]: 70 to 90% |
| CCCCCCCCCCNC[C@H](O)[C@@H](O)[C@H](O)CO [Compound 51] | – | A (100-90) | – | – |
| CCCCCCCCCCCCNC[C@H](O)[C@@H](O)[C@H](O)[C@H](O)CO [Compound 13] | – | A (100-90) | A (10/10-8/10) | – |
| CCCCCCCCCCCCCCNC[C@H](O)[C@@H](O)[C@H](O)[C@H](O)CO [Compound 18] | 70 to 90 | – | – | – |
| CCCCCCCCCCCCNC[C@@H](O)[C@@H](O)[C@H](O)[C@H](O)CO [Compound 30] | – | B (90-70) | – | – |
| CCCCCCCCCCCCNCC[C@@H](O)[C@H](O)[C@H](O)CO [Compound 42] | – | B (90-70) | – | – |
| CCCCCCCCCCCCCCNC[C@H](O)[C@@H](O)[C@H](O)CO [Compound 54] | – | A (100-90) | – | – |
| CCCCCCCCCCCCNC[C@H](O)[C@@H](O)[C@H](O)CO [Compound 52] | 90 to 100 | – | A (10/10-8/10) | – |
| CCCCCCCCCCCCNC[C@H](O)[C@H](O)[C@H](O)CO [Compound 48] | – | A (100-90) | A (10/10-8/10) | – |
| CCCCCCCCCCCCCCNC[C@H](O)[C@@H](O)[C@H](O)CO [Compound 53] | 90 to 100 | – | A (10/10-8/10) | – |
| CCCCCCCCCCNC[C@@H](O)[C@@H](O)[C@H](O)[C@H](O)CO [Compound 26] | 90 to 100 | – | B (7/10-5/10) | – |
| CCCCCCCCCCCCNC[C@H](O)[C@@H](O)[C@@H](O)[C@H](O)CO [Compound 37] | – | B (90-70) | – | – |
| CCCCCCCCCCCCNC[C@@H](O)[C@@H](O)[C@H](O)[C@H](O)CO [Compound 31] | – | A (100-90) | – | – |
| CCCCCCNC[C@H](O)[C@@H](O)[C@H](O)[C@H](O)CO [Compound 7] | 70 to 90 | – | – | – |

| SMILES | inhibition at 500 ppm [1, 3] [%] | Evaluation (rate of inhibition of lesion spot formation) [1, 3] | Evaluation (number of plants without the sign of disease per number of plants sprayed) [2] | other results |
| --- | --- | --- | --- | --- |
| CCCCCCCCCCCCNC[C@H](O)[C@@H](O)[C@H](O)[C@H](O)CO [Compound 15] | – | A (100-90) | A (10/10-8/10) | – |
| CCCCCCCCCCCCNC[C@@H](O)[C@@H](O)[C@H](O)[C@H](O)CO.Cl [Compound 29, 1-deoxy-1-n-dodecylamino-D-mannitol hydrochloride] | – | A (100-90) | B (7/10-5/10) | – |
| CCCCCCCCCCCCNC[C@H](O)[C@H](O)[C@@H](O)[C@H](C)O [Compound 38] | 70 to 90 | – | – | – |
| CCCCCCCCCCCCCCCCCCNC[C@H](O)[C@@H](O)[C@H](O)[C@H](O)CO [Compound 24, 1-deoxy-1-n-octadecylamino-D-glucitol] | 90 to 100 | – | A (10/10-8/10) | – |
| CCCCCCCCCCCCCCCCCCNC[C@H](O)[C@@H](O)[C@H](O[C@H]1O[C@H](CO)[C@@H](O)[C@H](O)[C@H]1O)[C@H](O)CO [Compound 56] | 90 to 100 | – | – | – |
| CCCCCCCCCCCCNC[C@H](O)[C@@H](O)[C@@H](O)[C@H](O)CO [Compound 36] | – | B (90-70) | – | – |
| CCCCCCCCCCCCNC[C@@H](O)[C@@H](O)[C@H](O)[C@H](O)CO [Compound 32] | – | A (100-90) | – | – |
| CCCCCCCCCCCCNC[C@H](O)[C@@H](O)[C@H](O[C@@H]1O[C@H](CO)[C@@H](O)[C@H](O)[C@H]1O)[C@H](O)CO [Compound 61] | 90 to 100 | – | B (7/10-5/10) | – |
| CCCCCCCCCCCCNC[C@H](O)[C@H](O)[C@H](O)CO [Compound 45] | 70 to 90 | – | – | – |
| CCCCCCCCCCCCNC[C@H](O)[C@H](O)[C@H](O)CO [Compound 47] | – | A (100-90) | – | – |
| CCCCCCCCCCCCNC[C@H](O)[C@@H](O)[C@H](O)[C@H](O)CO [Compound 12] | 90 to 100 | – | A (10/10-8/10) | – |
| CCCCCCCCCCCCNC[C@H](O)[C@@H](O)[C@@H](O)[C@H](O)CO [Compound 35] | 70 to 90 | – | – | – |
| CCCCCCCCCCCCNC[C@H](O)[C@H](O)[C@H](O)CO [Compound 46] | – | A (100-90) | – | – |
| CCCCCCCCCCNC[C@H](O)[C@@H](O)[C@H](O)[C@H](O)CO [Compound 10] | 90 to 100 | – | B (7/10-5/10) | – |
| CCCCCCCCCCCCNCC[C@H](O)[C@H](O)CO [Compound 55] | 90 to 100 | – | A (10/10-8/10) | – |
| CCCCCCCCCCCCCCNC[C@H](O)[C@H](O)[C@H](O)CO [Compound 49] | 90 to 100 | – | A (10/10-8/10) | – |
| CCCCCCCCCCCCCCCCCCNC[C@H](O)[C@@H](O)[C@H](O[C@@H]1O[C@H](CO)[C@@H](O)[C@H](O)[C@H]1O)[C@H](O)CO [Compound 63] | – | B (90-70) | – | – |
| CCCCCCCCCCCCNC[C@H](O)[C@@H](O)[C@H](O[C@@H]1O[C@H](CO)[C@H](O)[C@H](O)[C@H]1O)[C@H](O)CO [Compound 58] | 90 to 100 | – | B (7/10-5/10) | – |
| CCCCCNC[C@H](O)[C@@H](O)[C@H](O)[C@H](O)CO [Compound 5] | 70 to 90 | – | – | – |
| CCCCCCCCCCCCCCCCNC[C@H](O)[C@@H](O)[C@H](O)[C@H](O)CO [Compound 23] | 70 to 90 | – | – | – |
| CCCCCCCCCCCCCCCCCCNC[C@H](O)[C@@H](O)[C@H](O[C@H]1O[C@H](CO)[C@@H](O)[C@H](O)[C@H]1O)[C@H](O)CO [Compound 57] | – | B (90-70) | – | – |
| CCCCCCCCCCCCNCC[C@@H](O)[C@H](O)[C@H](O)CO [Compound 41] | 90 to 100 | – | – | – |
| CCCCCCCCCCCCCCCCCCNC[C@H](O)[C@@H](O)[C@H](O[C@@H]1O[C@H](CO)[C@H](O)[C@H](O)[C@H]1O)[C@H](O)CO [Compound 59] | 90 to 100 | – | – | – |
| CCCCCCCCCCCCNC[C@H](O)[C@@H](O)[C@H](O)[C@H](O)CO [Compound 17] | – | B (90-70) | – | – |
| CCCCCCCCCCCCNC[C@H](O)[C@@H](O)[C@H](O)[C@H](O)CO [Compound 14] | – | A (100-90) | B (7/10-5/10) | – |
